Results: patent US9796719B2, “Compounds and pharmaceutical compositions thereof for the treatment of inflammatory disorders” (GALAPAGOS NV, priority 2013, dated 2017)

Columns and labels:
hENPP2 [1] = target: T1, hENPP2 (UniProtKB/SwissProt Sequence ref Q13822) (Homo sapiens (Human), UniProt Q13822); assay: FS3 hENPP2 assay (fluorogenic substrate FS-3); type: biochemical; details: hENPP2, FS-3 as substrate
Procedure: Compound IC50 values are determined in a fluorescent hENPP2 (UniProtKB/SwissProt Sequence ref Q13822) biochemical assay using the fluorogenic autotaxin substrate FS-3 as substrate. FS-3 is a doubly labeled analog of LPC wherein the fluorophore is quenched through intramolecular energy transfer. Without hENPP2, the emission of the probe is quenched. If the substrate is hydrolyzed by hENPP2, the emission of the probe is not quenched anymore resulting in a fluorescence increase. Inhibition of hENPP2 by compounds will result in a decrease of the signal.
10 μL of a dilution series of compound, starting from 20 μM highest concentration, ⅕ dilution, is added to the wells. hENPP2 is used at a final concentration of 0.4 μg/mL or 0.64 μg/mL (it will be appreciated by the skilled person that the potency read out is independent of the enzyme concentration). The enzyme is diluted in 50 mM Tris-HCl pH 8.0, 250 mM NaCl, 5 mM KCl, 1 mM MgCl2, 1 mM CaCl2, 0.1% fatty acid free BSA in a total volume of 20 μL. Enzyme mixture is added to compounds and the resulting mixture is incubated for 30 min at room temperature under shaking. The reaction is started by the addition of 20 μL of 0.75 μM FS-3 diluted in the same buffer as described above and the mixture is incubated at 30° C. for 30 min. Fluorescence is read on the Envision (Excitation 485 nm, emission 520 nm).

hENPP2 [2] = target: T1, hENPP2; assay: LPC hENPP2 assay (choline release, LPC as substrate); type: biochemical
Method in brief: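 Choline released from LPC by ENPP2 is quantified after stopping with stop-developer containing 0.6 U/mL choline oxidase, 0.6 U/mL peroxidase, 1.8 mM TOOS, 1.2 mM amino-antipyrine and 20 mM EGTA. Quinoneimine dye read at 555 nm after 30 min at room temperature.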

| Structure (SMILES) | IC50 (hENPP2 [1]) [nM] | IC50 (hENPP2 [2]) [nM] |
| --- | --- | --- |
| CCc1nc2ccc(N3CCN(CCC(N)=O)CC3)nn2c1N(C)c1nc(-c2ccc(F)cc2)cs1 [Compound 52, 3-(4-(2-ethyl-3-((4-(4-fluorophenyl)thiazol-2-yl)(methyl)amino)imidazo[1,2-b]pyridazin-6-yl)piperazin-1-yl)propanamide] | 0.01 to 25 | 500 to 1000 |
| CCc1nc2ccc(N3CCN4C(=O)OC[C@@H]4C3)nn2c1N(C)c1nc(-c2ccc(F)cc2)cs1 [Compound 61, (S)-7-(2-ethyl-3-((4-(4-fluorophenyl)thiazol-2-yl)(methyl)amino)imidazo[1,2-b]pyridazin-6-yl)tetrahydro-1H-oxazolo[3,4-a]pyrazin-3 (5H)-one] | 0.01 to 25 | > 1000 |
| CCc1nc2ccc(N3CCN(CC(=O)N4CCCC4)[C@H](CO)C3)nn2c1N(C)c1nc(-c2ccc(F)cc2)cs1 [Compound 64, (S)-2-(4-(2-ethyl-3-((4-(4-fluorophenyl)thiazol-2-yl)(methyl)amino)imidazo[1,2-b]pyridazin-6-yl)-2-(hydroxymethyl)piperazin-1-yl)-1-(pyrrolidin-1-yl)ethanone] | 0.01 to 25 | 100 to 500 |
| CCc1nc2ccc(N3CCS(=O)(=O)CC3)nn2c1N(C)c1nc(-c2ccc(F)cc2)cs1 [Compound 79, [6-(1,1-Dioxothiomorpholin-4-yl)-2-ethyl-imidazo[1,2-b]pyridazin-3-yl]-[4-(4-fluoro-phenyl)-thiazol-2-yl]-methyl-amine] | 25 to 50 | > 1000 |
| CCOC(=O)C1CCN(c2ccc3nc(CC)c(N(C)c4nc(-c5ccc(F)cc5)cs4)n3n2)CC1 [Compound 95, ethyl 1-(2-ethyl-3-((4-(4-fluorophenyl)thiazol-2-yl)(methyl)amino)imidazo[1,2-b]pyridazin-6-yl)piperidine-4-carboxylate] | 0.01 to 25 | > 1000 |
| CCc1nc2ccc(N3CCC(C(=O)O)CC3)nn2c1N(C)c1nc(-c2ccc(F)cc2)cs1 [Compound 96, 1-(2-ethyl-3-((4-(4-fluorophenyl)thiazol-2-yl)(methyl)amino)imidazo[1,2-b]pyridazin-6-yl)piperidine-4-carboxylic acid] | 0.01 to 25 | > 1000 |
| CCc1nc2ccc(N3CCC(C(=O)NCCO)CC3)nn2c1N(C)c1nc(-c2ccc(F)cc2)cs1 [Compound 97, 1-(2-ethyl-3-((4-(4-fluorophenyl)thiazol-2-yl)(methyl)amino)imidazo[1,2-b]pyridazin-6-yl)-N-(2-hydroxyethyl)piperidine-4-carboxamide] | 0.01 to 25 | 500 to 1000 |
| CCc1nc2ccc(N3CC4CN(S(C)(=O)=O)CC4C3)nn2c1N(C)c1nc(-c2ccc(F)cc2)cs1 (stereo not shown) [Compound 123, N-(2-ethyl-6-(5-(methylsulfonyl)hexahydropyrrolo[3,4-c]pyrrol-2(1H)-yl)imidazo[1,2-b]pyridazin-3-yl)-4-(4-fluorophenyl)-N-methylthiazol-2-amine] | 0.01 to 25 | > 1000 |
| CCc1nc2ccc(N3CC4CN(C(C)=O)CC4C3)nn2c1N(C)c1nc(-c2ccc(F)cc2)cs1 (stereo not shown) [Compound 124, 1-(5-(2-ethyl-3-((4-(4-fluorophenyl)thiazol-2-yl)(methyl)amino)imidazo[1,2-b]pyridazin-6-yl)hexahydropyrrolo[3,4-c]pyrrol-2(1H)-yl)ethanone] | 0.01 to 25 | > 1000 |
| CCc1nc2ccc(N3CC4CN(S(=O)(=O)CCCN5CCOCC5)CC4C3)nn2c1N(C)c1nc(-c2ccc(F)cc2)cs1 (stereo not shown) [Compound 127, N-(2-ethyl-6-(5-(3-morpholinopropylsulfonyl)hexahydropyrrolo[3,4-c]pyrrol-2(1H)-yl)imidazo[1,2-b]pyridazin-3-yl)-4-(4-fluorophenyl)-N-methylthiazol-2-amine] | 0.01 to 25 | > 1000 |
| CCc1nc2ccc(N3CCC(=O)C3)nn2c1N(C)c1nc(-c2ccc(F)cc2)c(C#N)s1 [Compound 172, 2-((2-ethyl-6-(3-oxopyrrolidin-1-yl)imidazo[1,2-b]pyridazin-3-yl)(methyl)amino)-4-(4-fluorophenyl)thiazole-5-carbonitrile] | 0.01 to 25 | 100 to 500 |
| CCc1nc2ccc(C3=CCN(C(=O)OC(C)(C)C)CC3)nn2c1N(C)c1nc(-c2ccc(F)cc2)cs1 [Compound 193, tert-butyl 4-(2-ethyl-3-((4-(4-fluorophenyl)thiazol-2-yl)(methyl)amino)imidazo[1,2-b]pyridazin-6-yl)-5,6-dihydropyridine-1(2H)-carboxylate] | 0.01 to 25 | – |
| CN(c1nc(-c2ccc(F)cc2)cs1)c1c(CO)nc2ccc(C3=CCN(S(C)(=O)=O)CC3)nn12 [Compound 195, (3-((4-(4-fluorophenyl)thiazol-2-yl)(methyl)amino)-6-(1-(methylsulfonyl)-1,2,3,6-tetrahydropyridin-4-yl)imidazo[1,2-b]pyridazin-2-yl)methanol] | 0.01 to 25 | > 1000 |
| CN(c1nc(-c2ccc(F)cc2)cs1)c1c(CC#N)nc2ccc(C3=CCN(S(C)(=O)=O)CC3)nn12 [Compound 196, 2-(3-((4-(4-fluorophenyl)thiazol-2-yl)(methyl)amino)-6-(1-(methylsulfonyl)-1,2,3,6-tetrahydropyridin-4-yl)imidazo[1,2-b]pyridazin-2-yl)acetonitrile] | 0.01 to 25 | > 1000 |
| CN(c1nc(-c2ccc(F)cc2)cs1)c1c(CCC(N)=O)nc2ccc(C3CCN(S(C)(=O)=O)CC3)nn12 [Compound 197, 3-(3-((4-(4-fluorophenyl)thiazol-2-yl)(methyl)amino)-6-(1-(methylsulfonyl)piperidin-4-yl)imidazo[1,2-b]pyridazin-2-yl)propanamide] | 0.01 to 25 | 500 to 1000 |
| CN(c1nc(-c2ccc(F)cc2)c(C(=O)C(F)(F)F)s1)c1c(CCC#N)nc2ccc(C3CCN(S(C)(=O)=O)CC3)nn12 [Compound 199, 3-(3-((4-(4-fluorophenyl)-5-(2,2,2-trifluoroacetoyl)thiazol-2-yl)(methyl)amino)-6-(1-(methylsulfonyl)piperidin-4-yl)imidazo[1,2-b]pyridazin-2-yl)propanenitrile] | 0.01 to 25 | > 1000 |
| CN(c1nc(-c2ccc(F)cc2)cs1)c1c(CCCO)nc2ccc(C3CCN(S(C)(=O)=O)CC3)nn12 [Compound 200, 3-(3-((4-(4-fluorophenyl)thiazol-2-yl)(methyl)amino)-6-(1-(methylsulfonyl)piperidin-4-yl)imidazo[1,2-b]pyridazin-2-yl)propan-1-ol] | 0.01 to 25 | > 1000 |
| CCc1nc2cnc(N3CCN(CC(=O)N4CCC4)CC3)cn2c1N(C)c1nc(-c2ccc(F)cc2)c(C#N)s1 [Cpd 4, 2-((6-(4-(2-(azetidin-1-yl)-2-oxoethyl)piperazin-1-yl)-2-ethylimidazo[1,2-a]pyrazin-3-yl)(methyl)amino)-4-(4-fluorophenyl) thiazole-5-carbonitrile] | 0.01 to 25 | 100 to 500 |
| CCc1nc2cnc(N3CCN(CC(=O)N4CCCC4)CC3)cn2c1N(C)c1nc(-c2ccc(F)cc2)c(C#N)s1 [Cpd 8, 2-((2-ethyl-6-(4-(2-oxo-2-(pyrrolidin-1-yl)ethyl)piperazin-1-yl)imidazo[1,2-a]pyrazin-3-yl)(methyl)amino)-4-(4-fluorophenyl) thiazole-5-carbonitrile] | 0.01 to 25 | 100 to 500 |
